According to EPA's ToxValDB 9.5 (doi:10.2903/j.efsa.2013.3220):
Converted amounts (≈) assume the structure as drawn.

Assays:
Lepomis macrochirus = settings: acute; duration: 96 hours; mortality
Bibionidae = settings: chronic/long-term, duration: 28 days
Rattus norvegicus = settings: for LD50: acute, oral, mortality
Daphnia magna = settings: chronic/long-term, duration: 21 days
Typhlodromus pyri = assay: LR50; higher = less toxic; settings: chronic/long-term; duration: 7 days; mortality
Aphidius rhopalosiphi = assay: LR50; higher = less toxic; settings: acute; duration: 48 hours; mortality
Zea sp. = settings: acute, duration: 14 days
Colinus virginianus = settings: for LD50: acute, oral, mortality
Apis mellifera = settings: acute, mortality
Pimephales promelas = settings: chronic/long-term; duration: 32 days; body weight
Canidae = settings: chronic; duration: 1 years; oral; M/F; Dog Other; histopathology: nonneoplastic

Compound: CCO[C@@H]1[C@@H](OC)[C@H](C)O[C@@H](O[C@@H]2C[C@H]3CC[C@@H]4[C@@H](C=C5C(=O)[C@H](C)[C@@H](O[C@H]6CC[C@H](NC)[C@@H](C)O6)CCC[C@H](CC)OC(=O)C[C@H]54)[C@@H]3C2)[C@@H]1OC [N-demethyl-175-J]
- LC50 (Lepomis macrochirus): 2980 µg/L (≈ 4.06 µM)
- NOEC (Bibionidae): 0.617 µg/L
- LD50 (Rattus norvegicus): 3130 mg/kg-day
- NOEC (Daphnia magna): 0.03 µg/L

Compound: CCO[C@@H]1[C@@H](OC)[C@H](C)O[C@@H](O[C@@H]2C[C@H]3CC[C@@H]4[C@@H](C=C5C(=O)[C@H](C)[C@@H](O[C@H]6CC[C@H](N(C)C=O)[C@@H](C)O6)CCC[C@H](CC)OC(=O)C[C@H]54)[C@@H]3C2)[C@@H]1OC [N-demethyl-175-L]
- LC50 (Lepomis macrochirus): 1550 µg/L (≈ 2.03 µM)
- NOEC (Daphnia magna): 0.027 µg/L

Compound: CCO[C@@H]1[C@@H](OC)[C@H](C)O[C@@H](OC2C[C@H]3CC[C@H]4C5CC(=O)O[C@@H](CC)CCC[C@H](O[C@H]6CC[C@H](N(C)C)[C@@H](C)O6)[C@@H](C)C(=O)C5=C[C@H]4[C@@H]3C2)[C@@H]1OC (some centres not stated) [Spinetoram]
- LR50 (Typhlodromus pyri): 0.132 g/ha
- LR50 (Aphidius rhopalosiphi): 0.0885 g/ha
- LEC (Zea sp.; other): ≤ 150 g/ha
- LEC (Zea sp.; seedling emergence): ≤ 150 g/ha
- LC50 (Lepomis macrochirus): 2690 µg/L (≈ 3.6 µM)
- LD50 (Colinus virginianus; diet): > 2040 mg/kg-day
- LD50 (Colinus virginianus): > 2250 mg/kg-day
- NOEL (Colinus virginianus; reproduction developmental): 95 mg/kg-day
- NOEC (Bibionidae; M/F, development): 97.2 µg/kg
- NOEC (Bibionidae; development): 0.75 µg/L
- LD50 (Apis mellifera; duration: 48 hours, dermal): 0.024 µg/piece
- LD50 (Apis mellifera; duration: 72 hours, oral, unspecified): 0.11 µg/piece
- NOEC (Pimephales promelas): 0.182 mg/L
- LD50 (Anas platyrhynchos; acute, oral, unspecified, mortality): > 2250 mg/kg-day
- NOEL (Anas platyrhynchos; reproductive): 149 mg/kg-day
- LD50 (Rattus norvegicus): > 5000 mg/kg-day
- NOAEL (Rattus norvegicus; reproduction developmental, reproduction): 10 mg/kg-day
- LC50 (Tagia sp.; acute, duration: 14 days, mortality): > 1000 mg/kg
- NOEC (Tagia sp.; chronic/long-term, duration: 56 days, reproduction): 18.6 mg/kg
- NOEC (Daphnia magna; mobility): 0.0624 µg/L
- NOAEL (Canidae): 2.5 mg/kg-day
